From patent US12005050B2, “Methods for preventing or treating H. pylori infection” (TENNOR THERAPEUTICS (SUZHOU) LIMITED, priority 2022, dated 2024)

Legend:
[1] = Safety tolerance assessment, adverse events (Example 1); format: in vivo, human
Protocol: (§1) 40 asymptomatic healthy patients that are positive for Helicobacter pylori infection were admitted to the trial. The 40 patients were randomly allocated to four groups at a ratio of 1:1:1:1.
(§2) Different therapies were administered to the patients of each group according to the schedule below: • Group A: • Compound I capsule 200 mg/time (2 capsules, 100 mg/capsule), twice per day (BID); rabeprazole sodium enteric-coated tablet 20 mg/time (1 tablet, 20 mg/tablet), twice per day (BID) • Group B: • Compound I capsule 400 mg/time (4 capsules, 100 mg/capsule), twice per day (BID); rabeprazole sodium enteric-coated tablet 20 mg/time (1 tablet, 20 mg/tablet), twice per day (BID) • Group C: • Compound I capsule 600 mg/time (6 capsules, 100 mg/capsule), twice per day (BID); rabeprazole sodium enteric-coated tablet 20 mg/time (1 tablet, 20 mg/tablet), twice per day (BID) • Group D: • Compound I capsule 400 mg/time (4 capsules, 100 mg/capsule), twice per day (BID); rabeprazole sodium enteric-coated tablet 20 mg/time (1 tablet, 20 mg/tablet), twice per day (BID); amoxicillin capsule 1 g/time (4 capsules, 0.25 g/capsule), twice per day (BID)
(§3) All patients were admitted to the clinical research center 1 day before dosing (D-1 Day), randomly allocated to respective groups and completed examinations for safety and baseline indicators. From day 1 to day 14, respective therapies/drugs were orally administered to the patients within 30 minutes after breakfast and dinner. On day 15, the last dose was administered orally to the patients within 30 minutes after breakfast. During the trial, each patient was dosed for 29 times in total. All patients left the hospital after completing a safety tolerance assessment on day 17 and returned to the clinical research center for urea breath test (UBT) follow-up examination between days 44 and 50 to evaluate the effect of Helicobacter pylori eradication.
The safety tolerance assessment incudes assessment of adverse events (AE), serious adverse events (SAE), drug-related AEs, and AEs leading to withdrawal.
The number and incidence of all adverse events were summarized according to the respective trial group, systemic organ classification and preferred terminology.
By trial group, according to the CTCA 5.0 rating, the list describes the incidence of adverse events in each trial group (occurred in each trial group alone, in 2 groups or 3 groups).
By trial group, the mean, standard deviation, median, minimum and maximum values of vital signs (blood pressure, breathing, pulse and body temperature) and laboratory indicators before and after drug administration were calculated, and when necessary, paired t-test or non-parametric test were used for before-and-after comparison.
SAE and Suspected Unintended Serious Adverse Reactions (SUSAR) were listed separately.

Helicobacter pylori = assay: H. pylori eradication by urea breath test (UBT) (Example 1); format: in vivo; conditions: for Patients with UBT negative results: N = 10
Protocol: as §1, §2, §3
The initial analysis of eradication effect was based on the full data set, which is defined as all patients who were randomly selected and received at least one dose of the trial combination therapy.
The eradication effects in each trial group were evaluated by UBT tests (negative or positive) conducted at the baseline time point, on day 8 after drug administration, day 16 after drug administration and day 44-50 of follow-up visit. Descriptive analysis was done using frequency (percentage), and comparison between groups was made. Fisher precision test was used to conduct between-group comparison analysis. As an aid to the analysis, the UBT values were listed as mean, standard deviation, median, minimum, maximum, and deviation from the baseline.

[2] = Group A: Compound I 200 mg BID + rabeprazole sodium 20 mg BID
[3] = Group A: Compound I 200 mg BID + rabeprazole sodium 20 mg BID, N = 10
[4] = Group B: Compound I 400 mg BID + rabeprazole sodium 20 mg BID
[5] = Group B: Compound I 400 mg BID + rabeprazole sodium 20 mg BID, N = 10
[6] = Group C: Compound I 600 mg BID + rabeprazole sodium 20 mg BID
[7] = Group C: Compound I 600 mg BID + rabeprazole sodium 20 mg BID, N = 10
[8] = Group D: Compound I 400 mg BID + rabeprazole sodium 20 mg BID + amoxicillin 1 g BID
[9] = Group D: Compound I 400 mg BID + rabeprazole sodium 20 mg BID + amoxicillin 1 g BID, N = 10

Compound: CO[C@H]1/C=C/O[C@@]2(C)Oc3c(C)c(O)c4c(c3C2=O)C2=NC3(CCN(CCn5c([N+](=O)[O-])cnc5C)CC3)NC2=C(NC(=O)/C(C)=C\C=C\[C@H](C)[C@H](O)[C@@H](C)[C@@H](O)[C@@H](C)[C@H](OC(C)=O)[C@@H]1C)C4=O [Compound I, 4-Deoxy-3,4-[2-spiro-[1-[2-(2-methyl-5-nitro-imidazol-1-yl)ethyl]-piperidin-4-yl]]-(1H)-imidazo-(2,5-dihydro)rifamycin]
- Elevated serum creatinine, number of cases [1, 2]: 4 cases
- Incidence of elevated serum creatinine (common AE associated with the combination therapy) [1, 2]: 30%
- Incidence of hyperglycemia (common AE associated with the combination therapy) [1, 2]: 20%
- Drug related TEAE (patients/episodes) [1, 3]: (6/18)
- Incidence of AEs: Drug related TEAE [1, 3]: 60%
- Incidence of AEs: TEAE [1, 3]: 60%
- TEAE (patients/episodes) [1, 3]: (6/18)
- Elevated serum creatinine, number of cases [1, 4]: 1 case
- Grade 3 AEs [1, 4]: 3
- Incidence of elevated hemobilirubin (common AE associated with the combination therapy) [1, 4]: Group B: elevated hemobilirubin (20%), hyperglycemia (20%);
- Incidence of hyperglycemia (common AE associated with the combination therapy) [1, 4]: Group B: elevated hemobilirubin (20%), hyperglycemia (20%);
- Drug related TEAE (patients/episodes) [1, 5]: (7/9)
- Incidence of AEs: Drug related TEAE [1, 5]: 70%
- Incidence of AEs: TEAE [1, 5]: 80%
- TEAE (patients/episodes) [1, 5]: (8/12)
- Common adverse events with incidence of ≥15% associated with the combination therapy [1, 6]: Group C: absent;
- Elevated serum creatinine, number of cases [1, 6]: 2 cases
- Drug related TEAE (patients/episodes) [1, 7]: (5/8)
- Incidence of AEs: Drug related TEAE [1, 7]: 50%
- Incidence of AEs: TEAE [1, 7]: 50%
- TEAE (patients/episodes) [1, 7]: (5/8)
- Elevated serum creatinine, number of cases [1, 8]: 2 cases
- Incidence of elevated alanine aminotransferase (common AE associated with the combination therapy) [1, 8]: Group D: elevated alanine aminotransferase (20%), elevated aspartic acid aminotransferase (20%), hypertriglyceridemia (20%), hyperuricemia (20%), rash (20%), papules (20%).
- Incidence of elevated aspartic acid aminotransferase (common AE associated with the combination therapy) [1, 8]: Group D: elevated alanine aminotransferase (20%), elevated aspartic acid aminotransferase (20%), hypertriglyceridemia (20%), hyperuricemia (20%), rash (20%), papules (20%).
- Incidence of hypertriglyceridemia (common AE associated with the combination therapy) [1, 8]: Group D: elevated alanine aminotransferase (20%), elevated aspartic acid aminotransferase (20%), hypertriglyceridemia (20%), hyperuricemia (20%), rash (20%), papules (20%).
- Incidence of hyperuricemia (common AE associated with the combination therapy) [1, 8]: Group D: elevated alanine aminotransferase (20%), elevated aspartic acid aminotransferase (20%), hypertriglyceridemia (20%), hyperuricemia (20%), rash (20%), papules (20%).
- Incidence of papules (common AE associated with the combination therapy) [1, 8]: Group D: elevated alanine aminotransferase (20%), elevated aspartic acid aminotransferase (20%), hypertriglyceridemia (20%), hyperuricemia (20%), rash (20%), papules (20%).
- Incidence of rash (common AE associated with the combination therapy) [1, 8]: Group D: elevated alanine aminotransferase (20%), elevated aspartic acid aminotransferase (20%), hypertriglyceridemia (20%), hyperuricemia (20%), rash (20%), papules (20%).
- Drug related TEAE (patients/episodes) [1, 9]: (7/17)
- Incidence of AEs: Drug related TEAE [1, 9]: 70%
- Incidence of AEs: TEAE [1, 9]: 80%
- TEAE (patients/episodes) [1, 9]: (8/19)
- Decrease in renal creatinine clearance, incidence rate ([1]; Total, Groups A-D): 7.5%
- Drug-related AEs of grade 1 ([1]; Total, Groups A-D): 45
- Drug-related AEs of grade 2 ([1]; Total, Groups A-D): 6 cases
- Drug-related skin abnormalities (rash, papules, itching), number of cases ([1]; Total, Groups A-D): 8 cases
- Elevated serum creatinine, incidence rate ([1]; Total, Groups A-D): 15%
- Elevated serum creatinine, number of cases ([1]; Total, Groups A-D): 9 cases
- Grade 1 adverse events (CTC AE 5.0), number of cases ([1]; Total, Groups A-D): 46 cases
- Grade 2 adverse events (CTC AE 5.0), number of cases ([1]; Total, Groups A-D): 10 cases
- Hyperglycemia (unexpected adverse reaction), incidence ([1]; Total, Groups A-D): 12.5%
- Skin abnormalities, number of cases ([1]; Total, Groups A-D): 10 cases
- Unexpected adverse reactions, incidence ([1]; Total, Groups A-D): 15.0%
- Drug related TEAE (patients/episodes) ([1]; Total, Groups A-D, N = 40): (25/52)
- Incidence of AEs: Drug related TEAE ([1]; Total, Groups A-D, N = 40): 62.5%
- Incidence of AEs: TEAE ([1]; Total, Groups A-D, N = 40): 67.5%
- TEAE (patients/episodes) ([1]; Total, Groups A-D, N = 40): (27/57)
- Hyperglycemia (unexpected adverse reaction), number of cases ([1]; Total, Groups A-D, grade 1): 6 cases
- Unexpected adverse reactions, number of cases ([1]; Total, Groups A-D, grade 1): 7 cases
- Elevated transaminases, number of cases ([1]; Total, Groups A-D, severity all grade 1): 7 cases
- Safety and tolerability of the combination therapy ([1]; administered continuously for 14 days in asymptomatic healthy people with positive Helicobacter pylori infection): good safety and tolerability characteristics
- Serious adverse events (SAE) ([1]; entire trial, Groups A-D): no SAE
- Patients with UBT negative results (Helicobacter pylori; Day 8, Group A: Compound I 200 mg BID + rabeprazole sodium 20 mg BID): 7 (70.0) n(%)
- Patients with UBT negative results (Helicobacter pylori; Day 8, Group B: Compound I 400 mg BID + rabeprazole sodium 20 mg BID): 10 (100.0) n(%)
- Patients with UBT negative results (Helicobacter pylori; Day 8, Group C: Compound I 600 mg BID + rabeprazole sodium 20 mg BID): 8 (80.0) n(%)
- Patients with UBT negative results (Helicobacter pylori; Day 8, Group D: Compound I 400 mg BID + rabeprazole sodium 20 mg BID + amoxicillin 1 g BID): 7 (70.0) n(%)
- Patients with UBT negative results (Helicobacter pylori; Day 16, Group A: Compound I 200 mg BID + rabeprazole sodium 20 mg BID): 3 (30.0) n(%)
- Patients with UBT negative results (Helicobacter pylori; Day 16, Group B: Compound I 400 mg BID + rabeprazole sodium 20 mg BID): 5 (50.0) n(%)
- Patients with UBT negative results (Helicobacter pylori; Day 16, Group C: Compound I 600 mg BID + rabeprazole sodium 20 mg BID): 6 (60.0) n(%)
- Patients with UBT negative results (Helicobacter pylori; Day 16, Group D: Compound I 400 mg BID + rabeprazole sodium 20 mg BID + amoxicillin 1 g BID): 10 (100.0) n(%)
- Patients with UBT negative results (Helicobacter pylori; Follow up period (Day 44~50), Group A: Compound I 200 mg BID + rabeprazole sodium 20 mg BID): 0 (0.0) n(%)
- Patients with UBT negative results (Helicobacter pylori; Follow up period (Day 44~50), Group B: Compound I 400 mg BID + rabeprazole sodium 20 mg BID): 3 (30.0) n(%)
- Patients with UBT negative results (Helicobacter pylori; Follow up period (Day 44~50), Group C: Compound I 600 mg BID + rabeprazole sodium 20 mg BID): 4 (40.0) n(%)
- Patients with UBT negative results (Helicobacter pylori; Follow up period (Day 44~50), Group D: Compound I 400 mg BID + rabeprazole sodium 20 mg BID + amoxicillin 1 g BID): 8 (80.0) n(%)
- Eradication rate of H. pylori (Helicobacter pylori; Follow-up period (day 44 to day 50), Group D: Compound I 400 mg BID + rabeprazole sodium 20 mg BID + amoxicillin 1 g BID): 80%
